Experimental findings from patent US8642548B2 (Mannkind Corporation, priority 2009, dated 2014) are described below.

The nature of this assay: Phase 1a trial of GLP-1/FDKP inhalation powder: insulin, glucose, gastric emptying. The assay is classed as in vivo, human.

Regarding `CC[C@H](C)[C@H](NC(=O)[C@H](Cc1ccccc1)NC(=O)[C@H](CCC(=O)O)NC(=O)[C@H](CCCCN)NC(=O)[C@H](C)NC(=O)[C@H](C)NC(=O)[C@H](CCC(N)=O)NC(=O)CNC(=O)[C@H](CCC(=O)O)NC(=O)[C@H](CC(C)C)NC(=O)[C@H](Cc1ccc(O)cc1)NC(=O)[C@H](CO)NC(=O)[C@H](CO)NC(=O)[C@@H](NC(=O)[C@H](CC(=O)O)NC(=O)[C@H](CO)NC(=O)[C@@H](NC(=O)[C@H](Cc1ccccc1)NC(=O)[C@@H](NC(=O)CNC(=O)[C@H](CCC(=O)O)NC(=O)[C@H](C)NC(=O)[C@@H](N)Cc1c[nH]cn1)[C@@H](C)O)[C@@H](C)O)C(C)C)C(=O)N[C@@H](C)C(=O)N[C@@H](Cc1c[nH]c2ccccc12)C(=O)N[C@@H](CC(C)C)C(=O)N[C@H](C(=O)N[C@@H](CCCCN)C(=O)NCC(=O)N[C@@H](CCCNC(=N)N)C(N)=O)C(C)C` [GLP-1, glucagon-like peptide 1], the “mean fasting plasma glucose” value (1.5 mg GLP-1 inhaled, 20 min after dosing, from 85 mg/dL) stood at 70 mg/dL. Further, the “inhibition of gastric emptying” value (pulmonary administration, dry powder, data not shown) is “lack inhibition of gastric emptying”.
